Source: patent US12370200B2, “Pharmaceutical composition containing brexanolone, ganaxolone, or zuranolone, and use thereof” (Brii Biosciences, Inc., priority 2019, dated 2025)
≈ marks a conversion by molar mass, not a printed value. Where two headings read alike, the source gives them in different places.

How the values were obtained:
[1] = human plasma, after oral administration; cited from earlier work
[2] = Solubility of brexanolone by visual assessment of dissolution in various solvents; format: physicochemical; conditions: for solubility / solubility at 1 h: thermodynamic from solid; for solubility at 1 h: 40° C. for 1 h
Protocol: Solubility of the supplied brexanolone was determined by visual assessment of dissolution in various solvents at RT (˜22° C.) and 40° C. Aliquots of solvent were added to a fixed amount of brexanolone (˜10 mg) at room temperature until the dissolution point or a maximum volume of 1.8 mL was reached. All samples were then heated to 40° C. for 1 h and dissolution was observed. As shown in Error!

Compound: CC(=O)[C@H]1CC[C@H]2[C@@H]3CC[C@H]4C[C@](C)(O)CC[C@]4(C)[C@H]3CC[C@]12C [Ganaxolone, ganaxolone]
- half-life [1]: approximately 20 hours

Compound: CC(=O)[C@H]1CC[C@H]2[C@@H]3CC[C@H]4C[C@H](O)CC[C@]4(C)[C@H]3CC[C@]12C [brexanolone]
- solubility ([2]; 22 °C, organic solvent or mixture, RT, in MeCN, IPE, MTBE, IPA, MeOH, IPA:water (9:1, v:v), toluene, DMSO, EtOAc (span over these solvents), read-out: moderate solubility at RT): 6 to 52 mg/mL (≈ 18.8 to 163 mM)
- solubility ([2]; 22 °C, organic solvent or mixture, RT, in THF and DCM, read-out: high solubility at RT): > 96 mg/mL
- solubility at 1 h ([2]; organic solvent or mixture, solvent 2-Propanol (IPA)): > 19 mg/mL
- solubility ([2]; organic solvent or mixture, solvent 2-Propanol (IPA), RT (~22° C.), read-out: Solubility at RT): 19 to 49 mg/mL (≈ 59.7 to 154 mM)
- solubility at 1 h ([2]; organic solvent or mixture, solvent 2-Propanol:water (9:1, v:v)): > 20 mg/mL
- solubility ([2]; organic solvent or mixture, solvent 2-Propanol:water (9:1, v:v), RT (~22° C.), read-out: Solubility at RT): 20 to 51 mg/mL (≈ 62.8 to 160 mM)
- solubility at 1 h ([2]; organic solvent or mixture, solvent Acetonitrile (MeCN)): > 6 mg/mL
- solubility ([2]; organic solvent or mixture, solvent Acetonitrile (MeCN), RT (~22° C.), read-out: Solubility at RT): 6 to 10 mg/mL (≈ 18.8 to 31.4 mM)
- solubility at 1 h ([2]; organic solvent or mixture, solvent Dichloromethane (DCM)): > 108 mg/mL
- solubility ([2]; organic solvent or mixture, solvent Dichloromethane (DCM), RT (~22° C.), read-out: Solubility at RT): 108 to 432 mg/mL (≈ 339 to 1360 mM)
- solubility at 1 h ([2]; organic solvent or mixture, solvent Dimethyl sulfoxide (DMSO)): > 20 mg/mL
- solubility ([2]; organic solvent or mixture, solvent Dimethyl sulfoxide (DMSO), RT (~22° C.), read-out: Solubility at RT): 20 to 49 mg/mL (≈ 62.8 to 154 mM)
- solubility at 1 h ([2]; organic solvent or mixture, solvent Ethyl Acetate (EtOAc)): > 21 mg/mL
- solubility ([2]; organic solvent or mixture, solvent Ethyl Acetate (EtOAc), RT (~22° C.), read-out: Solubility at RT): 21 to 52 mg/mL (≈ 65.9 to 163 mM)
- solubility at 1 h ([2]; organic solvent or mixture, solvent Isopropyl ether (IPE)): > 6 mg/mL
- solubility ([2]; organic solvent or mixture, solvent Isopropyl ether (IPE), RT (~22° C.), read-out: Solubility at RT): 6 to 11 mg/mL (≈ 18.8 to 34.5 mM)
- solubility at 1 h ([2]; organic solvent or mixture, solvent Methanol (MeOH)): > 19 mg/mL
- solubility ([2]; organic solvent or mixture, solvent Methanol (MeOH), RT (~22° C.), read-out: Solubility at RT): 19 to 49 mg/mL (≈ 59.7 to 154 mM)
- solubility at 1 h ([2]; organic solvent or mixture, solvent Methyl t-butyl ether (MTBE)): > 10 mg/mL
- solubility ([2]; organic solvent or mixture, solvent Methyl t-butyl ether (MTBE), RT (~22° C.), read-out: Solubility at RT): 10 to 20 mg/mL (≈ 31.4 to 62.8 mM)
- solubility at 1 h ([2]; organic solvent or mixture, solvent Tetrahydrofuran (THF)): > 96 mg/mL
- solubility ([2]; organic solvent or mixture, solvent Tetrahydrofuran (THF), RT (~22° C.), read-out: Solubility at RT): 96 to 384 mg/mL (≈ 301 to 1210 mM)
- solubility at 1 h ([2]; organic solvent or mixture, solvent Toluene): > 20 mg/mL
- solubility ([2]; organic solvent or mixture, solvent Toluene, RT (~22° C.), read-out: Solubility at RT): 20 to 50 mg/mL (≈ 62.8 to 157 mM)
- Solubility at RT ([2]; solvent Water, RT (~22° C.)): <6 mg/mL
- solubility at 1 h ([2]; solvent Water): < 6 mg/mL
- solubility ([2]; solvent Water, RT (~22° C.), read-out: Solubility at RT): < 6 mg/mL
